Laboratory results reported in patent US20180085385A1, “GLUCOSE-SENSITIVE CELL PROTECTING AGENT” (THE UNIVERSITY OF TOKYO, priority 2015, published 2018).

What was measured:
[1] = tested on: orexin nerve cells in the brain of diabetic model mice (db/db mouse); assay: Protection of nerve cells from disappearance at individual level, high fat feed db/db mouse, in situ hybridization; format: in vivo; details: high fat feed 6 to 8 weeks of age, 5 μg/μl ManNAc containing drinking water
Description: To confirm effectiveness of ManNAc for nerve cell protection at an individual level, the number of orexin nerve cells and orexin expression were examined using genetically obese mouse (db/db mouse, hetero mouse as control, all male) (each group n=6). The breeding conditions of each group (6-8 weeks old) are as described below. […]
high fat feed+drinking water group high fat feed+5 μg/μl ManNAc containing drinking water group normal food+drinking water group normal food+5 μg/μl ManNAc containing drinking water group
Three individual mice from each group mentioned above were subjected to Nembutal anesthesia, and perfusion was fixed with formamide fixative (Genostaff). The brain was taken out, embedded in paraffin, and sections with 6 μm thickness in the sagittal direction were prepared. […]
was cloned into […] vector (Promega), and using DIG RNA Labeling Mix (Roche) and the plasmid as a template, digoxigenin-labeled RNA probe was prepared. […] The cells expressing orexin gene were counted, and the mean of 3 individuals and standard error were determined.

[2] = tested on: human iPS cells; assay: Orexin cell induction from human iPS cells (SDIA differentiation culture, Hcrt RT-PCR); format: cell-based; details: for orexin cell induction activity (Hcrt expression): 8, 40, 200 nM, 1 μM and 5 μM instead of 1.0 mM ManNAc, compared to ManNAc
Description: Human iPS cell line 201B7 (HSP0001) was obtained from BioResource Center, RIKEN, Japan via National BioResource project (MEXT, Japan). Human iPS cells were maintained on a feeder layer of mitomycin C-treated STO/Neo resistant/LIF(SNL) feeder cells in primates ES medium (ReproCELL) supplemented with 5 ng/mL recombinant human bFGF (Wako). For differentiation induction into nerve by SDIA and BMP4 system, human iPS cells were cocultured with PA6 for 20 days. 5 nM BMP4 was supplemented from day 7. From the start of the differentiation culture (day 0), ManNAc was added to a neuronal differentiation medium to 1.0 mM, and the medium was exchanged on days 7, 10 and 14 of differentiation culture. In addition, 5 nM recombinant human BMP4 (Wako) was added from day 7 of the differentiation culture. On day 14 of the differentiation culture, EX-527 (SIGMA-ALDRICH) was added to neuronal differentiation medium to 50 nM, or BADGP (SIGMA-ALDRICH) was added to neuronal differentiation medium to 5 mM, and the cells were harvested on day 20 of the differentiation culture and subjected to RT-PCR.
(§1) Total RNA was extracted from the harvested cells by using RNeasy plus Mini Kit (QIAGEN). Then, using SuperScript III First Strand Synthesis System (Invitrogen), a reverse transcription reaction was performed in a reaction mixture containing total RNA (1 μg) and Oligo (dT), whereby cDNA was synthesized.
(§2) PCR reaction was performed on a 10 μl scale, 1 U LA-Tag DNA Polymerase (Takara) was added to 0.5 μl of cDNA, 5 μl of 2×GC Buffer I, 200 μM of each dNTP, 1.5 mM MgCl2 and final concentration 0.2 μM of each primer and, after heat denaturation at 95° C. for 3 min, and PCR was performed under the conditions of (95° C. 30 sec, 55° C. 30 sec, 72° C. 30 sec)×35 cycles (20 cycles for Actb). The primers used are shown below.
(§3) Each PCR product was electrophoresed on 2% agarose gel and stained with ethidium bromide, and the bands were observed by UV irradiation.
According to the method described in Reference Example 1 except that ManNAc, ManNAcF, 5S-ManNAc, 5S-ManNAcF, ManNCOOMe or ManNCOOEt (8, 40, 200 nM, 1 μM and 5 μM, respectively) was added instead of 1.0 mM ManNAc, orexin cells were induced from human iPS cells. The expression of orexin gene (Hcrt) in the cells induced under the various conditions was examined.

[3] = tested on: orexin nerve cells differentiated from human iPS cells; assay: Disappearance of orexin nerve cells under high glucose concentration and protection or recovery from disappearance (Example 1); format: cell-based; details: for recovery of orexin nerve cells (expression of orexin): culture under high glucose concentration extended for 2 or 4 more days, compound then added to the medium; for disappearance of the orexin nerve cells (orexin (Hcrt) expression): high glucose concentration (25 mM), 8 days, addition concentration 10 μM ManNAc, 1 μM ManNAcF
Description: as §1, §2, §3
The orexin nerve cells were cultured in a neuronal differentiation medium (G-MEM+10% KSR (Knockout Serum Replacement, Invitrogen)) for 8 days, and maintained in vitro. In this case, the cells were divided based on the glucose concentration in the medium into two groups having low glucose concentration (5 mM) and high glucose concentration (25 mM) and cultured.

[4] = tested on: Gne/Mnk M712T homozygous mutant mouse; details: mutant mice otherwise did not survive beyond age 3 after birth; cited from earlier work
[5] = tested on: renal proximal tubule epithelial cells derived from type II diabetes patients (D-RPTEC); assay: Histone O-GlcNAc modification level in D-RPTEC by immunofluorescence staining; format: cell-based, human; details: D-RPTEC cultured 96 hr under high glucose (25 mM glucose)
Description: Normal human renal proximal tubule epithelial cells and RPTEC derived from type II diabetes patients (D-RPTEC) were purchased from Lonza. RPTEC and D-RPTEC maintained with REGM™ Renal Epithelial Cell proliferation Medium Bullet Kit (Lonza) were each seeded in a 4-well dish at 1×10^4 cells per 1 well, and cultured for 4 days in a control medium or high glucose medium (adjusted to final concentration of 25 mM with 2.5 M glucose solution).
The cultured cells were fixed with 4% para-formaldehyde for 20 min and, after a permeabilization treatment with 0.2% TritonX-100-PBS solution, treated overnight with a blocking solution [PBS(−) containing 5% bovine serum-derived albumin (BSA), 0.1% Tween20, 0.2% TritonX-100] at 4° C. Then, the cells were reacted with anti-histone O-GlcNAc antibody (20B2) diluted with 5% BSA-PBS(−)-0.1% Tween20 at 4° C. overnight, reacted with secondary antibody diluted with PBS(−) at room temperature for 1 hr. The nucleus was stained with 1 μg/ml DAPI (Dojindo) at room temperature for 20 min, mounted in mountant (VECTASHIELD), and slides were prepared. Observation was performed with an integrated confocal laser microscope (FV10i, OLYMPUS). After obtaining images, the number of O-GlcNAc signals in the nucleus was measured by image analysis software Cell Profiler (www.cellprofiler.org), and statistical processing was performed by Wilcoxon rank-sum test. […]

[6] = tested on: orexin nerve cells differentiated from human iPS cells; assay: Protection or recovery of orexin nerve cells under high glucose by various ManNAc derivatives (Example 3); format: cell-based; details: for recovery activity of orexin production (Hcrt expression intensity): 12-day course: high glucose 25 mM from day 0, compound 1 μM added from +day 8, harvested +day 12
Description: as §1, §2, §3
The orexin nerve cells were cultured in a neuronal differentiation medium (G-MEM+10% KSR (KnockOut Serum Replacement, Invitrogen)) for 8 days or 12 days, and maintained in vitro. In this case, the glucose concentration of the medium was set to a high glucose concentration (25 mM), ManNAc or various ManNAc derivatives (each 1 μM) were added, and the cells were cultured. In the 8-day culture course, glucose and ManNAc or various ManNAc derivatives were added to the medium from the start of the culture (+day 0), the cells were harvested on +day 8 the orexin expression was analyzed. As a control, orexin nerve cells cultured at low glucose concentration (5 mM) were prepared. In the 12-day culture course, high glucose was added from the start of the culture (+day 0), ManNAc or various ManNAc derivatives were added to the medium from +day 8 from the start of the culture, the cells were harvested on +day 12, and the orexin expression was analyzed. As a control, orexin nerve cells cultured at low glucose concentration (5 mM) from +day 8 from the start of the culture were prepared. According to the expression analysis by the RT-PCR method described in Reference Example 1, the expression of Hcrt gene was examined. Based on the expression of Hcrt gene in orexin nerve cells at the start of the culture, expression of Hcrt gene in orexin nerve cells after culture with the addition of ManNAc or various ManNAc derivatives under high glucose conditions is shown by expression intensity (FIG. 3).

SMILES | recovery of orexin nerve cells (expression of orexin) [3] | recovery activity of orexin production (Hcrt expression intensity) [6] | orexin cell induction activity (Hcrt expression) [2] | also measured
CC(=O)N[C@@H]1C(O)O[C@H](CO)[C@@H](O)[C@@H]1O (stereo partly drawn) [ManNAc, N-acetyl-D-mannosamine] | expression of orexin was observed | higher | – | decrease in the number of orexin nerve cells and the orexin gene expression [1]: suppressed; expression of orexin gene (Hcrt) ([2]; 1.0 mM ManNAc from day 0, EX-527 50 nM or BADGP 5 mM from day 14, harvested day 20): expression of Hcrt was observed; disappearance of the orexin nerve cells (orexin (Hcrt) expression) [3]: disappearance of the orexin nerve cells could be avoided; survival of Gne/Mnk M712T homozygous mutant mice [4]: rescued the mice; histone O-GlcNAc modification level [5]: increase in the histone O-GlcNAc modification level was observed
CC(=O)NC1C(O)SC(CO)[C@@H](O)[C@@H]1O (stereo partly drawn) [5S-ManNAc] | – | low activity | – | –
COC(=O)NC1C(O)OC(CO)[C@@H](O)C1O (stereo partly shown) [ManNCOOMe] | – | low activity | higher orexin cell induction activity as compared to ManNAc | maintenance of orexin production (Hcrt expression intensity) ([6]; 8-day course: high glucose 25 mM and compound 1 μM from +day 0, harvested +day 8): orexin production was maintained except for ManNCOOMe
O=C(CF)NC1C(O)OC(CO)[C@@H](O)[C@@H]1O (stereo partly shown) [ManNAcF] | expression of orexin was observed | highest activity | higher orexin cell induction activity as compared to ManNAc | disappearance of the orexin nerve cells (orexin (Hcrt) expression) [3]: disappearance of the orexin nerve cells could be avoided
NC(=O)C1CCCc2c1[nH]c1ccc(Cl)cc21 (stereo not shown) [EX-527, reference compound] | completely ineffective | – | – | –
CCOC(=O)NC1C(O)OC(CO)[C@@H](O)C1O (stereo partly shown) [ManNCOOEt] | – | low activity | higher orexin cell induction activity as compared to ManNAc | –
CC(=O)N[C@H]1[C@@H](OCc2ccccc2)O[C@H](CO)[C@H](O)[C@@H]1O [BADGP, reference compound] | completely ineffective | – | – | –
